“Also recorded” adds a separate entry of the source. Ends that are not written are not given here.
Key:
human beta cells [1] = assay: Ki67-insulin immunolabeling of dispersed human islet cells (beta cell proliferation); conditions: for actual Ki67% values: DYRK1A inhibitor alone, dispersed human islets, 96 hours, FIG. 1F; for synergy of DYRK1A inhibitor with GLP1 on beta cell proliferation: in combination with GLP1, FIGS. 1F, 4; for ability to replace or mimic GLP1 in harmine-GLP1 proliferation: agent administered together with harmine, FIGS. 5A-5C, 5E, 5F; for proliferation, agent alone at low dose: harmine 1 μM alone or GLP1 alone, FIG. 3E; for synergy of GLP1R agonist with harmine on beta cell proliferation: in combination with harmine, FIG. 1G
Description: (§3) Human Islets: Human islets from 81 normal donors were obtained through the NIH-supported Integrated Islet Distribution Program (IIDP), the Alberta Diabetes Institute Islet Core at the University of Alberta, and the Clinical Islet Laboratory, University of Alberta Hospital. Islets were harvested from pancreata from deceased organ donors without any identifying information with informed consent and IRB approval at the islet-isolating centers. […] In addition, islets were obtained from 11 donors with Type 2 diabetes. […] Three were known to be on diabetes medications (metformin n=3, DPP4 inhibitor n=1). […] Whole islets were pelleted by centrifugation at 200×G and washed twice in PBS. Islets were then incubated in Accutase for 15-17 minutes at 37° C. and completely dispersed to single cells by pipette trituration. Single islet cells were pelleted by centrifugation at 700×G and re-suspended in islet culture medium.
(§4) Compound Treatments: Dispersed islets were plated on poly-D-lysine-laminin-coated glass chamber slides or coverslips. Cells derived from 20-30 IEQ dispersed cells were seeded per well, and allowed to recover for 24 hr prior to compound treatment. Cells were treated for 96 hours prior to Ki67 staining, BrdU staining or TUNEL labeling.
Antibodies were diluted in blocking buffer (5% normal goat serum (NGS), 1% bovine serum albumin (BSA), 0.5% Triton, in PBS). […] BrdU (Cell Proliferation Labelling Reagent. Amersham GE Healthcare. GE: RPN201) was added to each treatment at a 1:100 dilution, 18 hours prior to fixation. Antigen retrieval for BrdU immunostaining was performed following fixation using 1N HCl at 37° C. for 30 minutes before primary antibody incubation.

beta (INS+) cells = assay: BrdU labeling in beta (INS+) cells of dispersed human islets; format: cell-based
Description: (§1) Primary and secondary antisera used are listed below.

alpha (GCG+) cells = assay: BrdU labeling in alpha (GCG+) cells of dispersed human islets; format: cell-based
Description: as §1

delta (SST+) cells = assay: BrdU labeling in delta (SST+) cells of dispersed human islets; format: cell-based
Description: as §1

ductal (CK19+) cells = assay: BrdU labeling in ductal (CK19+) cells of dispersed human islets; format: cell-based
Description: as §1

human beta cells [2] = assay: TUNEL assay of beta cell death; format: cell-based; conditions: 96 hours, FIGS. 10C-10D
Description: as §1

[3] = system: markers of beta cell differentiation; assay: qPCR of differentiation markers in islets from donors with T2D; format: cell-based, human; conditions: FIG. 9A
Description: Purity ranged from 55% to 85%.
(§2) Primers are shown below in Tables 5 and 6.

PDX1, MAFA, and NKX6.1 = conditions: normal donors, FIG. 8B
Description: Antibodies were diluted in blocking buffer (5% normal goat serum (NGS), 1% bovine serum albumin (BSA), 0.5% Triton, in PBS). Primary and secondary antisera used are listed below. BrdU (Cell Proliferation Labelling Reagent. Amersham GE Healthcare. GE: RPN201) was added to each treatment at a 1:100 dilution, 18 hours prior to fixation. Antigen retrieval for BrdU immunostaining was performed following fixation using 1N HCl at 37° C. for 30 minutes before primary antibody incubation. Cells were incubated with primary and secondary antibodies according to Table 4 below before counterstained with DAPI.

T2D beta cells = conditions: FIGS. 9D-9E
Description: as §3, §4
Antibodies were diluted in blocking buffer (5% normal goat serum (NGS), 1% bovine serum albumin (BSA), 0.5% Triton, in PBS). […]

cell cycle molecules = assay: qPCR of cell cycle activators and inhibitors in human islets; format: cell-based; conditions: GLP1 added to harmine, vs harmine alone, 72 hours
Description: as §2

[4] = GLP1 added to harmine, vs harmine alone

Nc1ncnc2c1c(I)cn2[C@@H]1O[C@H](CO)[C@@H](O)[C@H]1O [5-IT, 5-iodotubercidin]
actual Ki67% values (human beta cells [1]): 2.6%
synergy of DYRK1A inhibitor with GLP1 on beta cell proliferation (human beta cells [1]): synergistic

CC(C)Oc1ccc(F)c(-c2cnc(N)c(C(=O)Nc3cnccc3N3CCC[C@@H](C(=O)O)C3)n2)c1 [GNF4877]
actual Ki67% values (human beta cells [1]): 2.9%
synergy of DYRK1A inhibitor with GLP1 on beta cell proliferation (human beta cells [1]): synergistic

O=S(=O)(NCCNC/C=C/c1ccc(Br)cc1)c1cccc2cnccc12 [H89]
effect on human beta cell proliferation, agent administered alone (human beta cells [1]): no effect on its own

CC(C)Cn1c(=O)n(C)c(=O)c2[nH]cnc21 [IBMX, 3-Isobutyl-1-methylxanthine]
ability to replace or mimic GLP1 in harmine-GLP1 proliferation (human beta cells [1]): mimicked; also recorded: can replace GLP1
effect on human beta cell proliferation, agent administered alone (human beta cells [1]): no effect on proliferation

CCN1/C(=C/C(C)=O)Sc2ccc(O)cc21 [INDY]
actual Ki67% values (human beta cells [1]): 1.7%
synergy of DYRK1A inhibitor with GLP1 on beta cell proliferation (human beta cells [1]): synergistic

CCCC(=O)Nc1ncnc2c1ncn2[C@@H]1O[C@@H]2COP(=O)(O)O[C@H]2[C@H]1OC(=O)CCC [di-butyryl cAMP, dibutyryl cAMP]
ability to replace or mimic GLP1 in harmine-GLP1 proliferation (human beta cells [1]): can replace GLP1
ability to replace or mimic GLP1 in harmine-GLP1 proliferation (human beta cells [1]; listed as dibutyryl-cyclicAMP): mimicked
effect on human beta cell proliferation, agent administered alone (human beta cells [1]): no effect on proliferation

OCCN(CCO)c1nc(N2CCCCC2)c2nc(N(CCO)CCO)nc(N3CCCCC3)c2n1 [dipyridamole]
ability to replace or mimic GLP1 in harmine-GLP1 proliferation (human beta cells [1]): mimicked; also recorded: can replace GLP1
effect on human beta cell proliferation, agent administered alone (human beta cells [1]): no effect on proliferation

COc1ccc2c(c1)[nH]c1c(C)nccc12 [harmine]
proliferation (BrdU) in beta cells (beta (INS+) cells; harmine alone): activates proliferation
proliferation (BrdU) in alpha cells (alpha (GCG+) cells; harmine alone): activates proliferation
proliferation (BrdU) in delta cells (delta (SST+) cells; harmine alone): activates proliferation
proliferation (BrdU) in ductal cells (ductal (CK19+) cells; harmine alone): activates proliferation
markers of beta cell death (TUNEL) (human beta cells [2]): Neither harmine nor the harmine-GLP1 combination treatment induced markers of beta cell death
expression of differentiation markers (qPCR) [3]: did not have adverse effects on differentiation
expression of differentiation markers (qPCR) ([3]; listed as Harmine): increased the expression of PDX1, MAFB, NKX6.1, GLUT2, GLP1R, and PCSK1
PDX1, MAFA and NKX6.1 proteins in beta cells (PDX1, MAFA, and NKX6.1): increases in beta cell nuclei
beta cell proliferation (Ki67 immunolabeling) (T2D beta cells): activated beta cell proliferation in T2D beta cells
actual Ki67% values (human beta cells [1]): 2.1%
proliferation, agent alone at low dose (human beta cells [1]): little or no proliferation
human beta cell proliferation (Ki67 in insulin-positive cells) (human beta cells [1]; harmine alone): ~2%
actual Ki67% value (human beta cells [1]; harmine alone, experiments of FIG. 1G): 2.2%

O=C1NC(Nc2ccccc2)=N/C1=C\c1ccc2c(c1)OCO2 [leucettine]
actual Ki67% values (human beta cells [1]): 2.8%
synergy of DYRK1A inhibitor with GLP1 on beta cell proliferation (human beta cells [1]): synergistic

GLP1(7-36)amide (HAEGTFTSDVSSYLEGQAAKEFIAWLVKGR-NH2; UniProt P01275 98-127, looked up)
proliferation (BrdU) in beta cells (beta (INS+) cells; [4]): further increased proliferation; also recorded: accentuates
proliferation (BrdU) in alpha cells (alpha (GCG+) cells; [4]): no additional effect
proliferation (BrdU) in delta cells (delta (SST+) cells; [4]): no additional effect
proliferation (BrdU) in ductal cells (ductal (CK19+) cells; [4]): further increased proliferation; also recorded: accentuates
change to cell cycle activators or inhibitors (qPCR) (cell cycle molecules): no incremental change to cell cycle activators or inhibitors
effect on human beta cell proliferation, agent administered alone (human beta cells [1]): negligible effects
proliferation, agent alone at low dose (human beta cells [1]): little or no proliferation
synergy of GLP1R agonist with harmine on beta cell proliferation (human beta cells [1]): synergy was also apparent

exendin-4: GLP1R agonist (11940, Cayman)
synergy of GLP1R agonist with harmine on beta cell proliferation (human beta cells [1]): synergy was also apparent

lixisenatide: GLP1R agonist
synergy of GLP1R agonist with harmine on beta cell proliferation (human beta cells [1]): synergy was also apparent

Reference: patent US12630803B2, “Method of increasing proliferation of pancreatic beta cells, treatment method, and composition” (ICAHN SCHOOL OF MEDICINE AT MOUNT SINAI, priority 2018, dated 2026)
